Non-standard residues stand in square brackets, D forms with d. No end group written: not given here.
How the values were obtained:
[1] = tested on: plasma membrane of several mammalian cell types; details: energy-independent manner; cited from earlier work
reactive oxygen species = details: cited from earlier work
[2] = cited from earlier work
LHON patients [3] = details: cited from earlier work
LHON patients [4] = details: 85 LHON patients, 900 mg/d for 24 weeks; cited from earlier work
[5] = tested on: Human subjects at risk of having, suspected of having, or diagnosed as having DOA; experiment: Treatment and prevention of DOA in human subjects, ophthalmic solution (Example 2); type: in vivo; details: 1 drop of 1%, 3%, or 5% ophthalmic solution three times per day for 18 months
Description: Human subjects at risk of having (e.g., diagnosed with an OPA1 gene mutation, but who are not yet symptomatic, e.g., no visual impairment), suspected of having, or diagnosed as having DOA are administered a therapeutically effective amount of an aromatic-cationic peptide of the present technology, such as D-Arg-2′,6′-Dmt-Lys-Phe-NH2, alone or in conjunction with one or more additional therapeutic agents. Subjects will receive 1 drop of 1%, 3%, or 5% D-Arg-2′,6′-Dmt-Lys-Phe-NH2 ophthalmic solution in a randomly selected study eye three times per day for 18 months. The remaining eye of these subjects serves as the untreated internal control. The patients in the control group will be administered 1 drop of vehicle solution in one of their eyes (fellow control eye) three times per day over the course of the 18 month study. Subjects are assessed weekly for signs and symptoms associated with DOA according to one or more criteria described herein (e.g., one or more of visual loss, optic nerve atrophy, palor of the neuroretianl rim, presence of temporal pigmentary grey cresent, thinning of the fiber layer at the optic nerve rim, papillary excavation, scotoma, changes in color vision, etc.).

mu-opioid receptor = mu-opioid receptor (Homo sapiens, UniProt P35372); experiment: mu-opioid receptor agonist activity
Sequence of mu-opioid receptor (P35372 whole entry, species assumed): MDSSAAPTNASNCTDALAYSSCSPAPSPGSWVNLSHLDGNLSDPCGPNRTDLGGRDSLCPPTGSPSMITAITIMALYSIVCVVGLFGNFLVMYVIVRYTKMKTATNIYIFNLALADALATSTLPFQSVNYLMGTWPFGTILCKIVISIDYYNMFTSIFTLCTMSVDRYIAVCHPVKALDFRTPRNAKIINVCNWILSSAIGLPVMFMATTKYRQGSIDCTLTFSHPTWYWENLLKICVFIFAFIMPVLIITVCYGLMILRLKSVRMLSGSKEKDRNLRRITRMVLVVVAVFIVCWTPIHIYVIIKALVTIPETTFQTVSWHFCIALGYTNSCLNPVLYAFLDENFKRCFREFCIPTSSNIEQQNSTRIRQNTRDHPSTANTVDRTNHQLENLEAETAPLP

2′,6′-Dmt-D-Arg-Phe-Lys-NH2
penetration of the plasma membrane [1]: readily penetrates

Cc1c(C)c2c(c(C)c1O)CCC(C)(C(=O)O)O2 (centres unmarked) [Trolox]
protective effects in vitro (reactive oxygen species): modest protective effects

COC1=C(OC)C(=O)C(C/C=C(\C)CC/C=C(\C)CC/C=C(\C)CC/C=C(\C)CC/C=C(\C)CC/C=C(\C)CC/C=C(\C)CC/C=C(\C)CC/C=C(\C)CCC=C(C)C)=C(C)C1=O [coenzyme Q-10]
protective effects in vitro (reactive oxygen species): modest protective effects | delivery crossing lipid membranes to mitochondria ([2]; exogenous): poor delivery

N[C@@H](CCC(=O)N[C@@H](CS)C(=O)NCC(=O)O)C(=O)O [glutathione]
protective effects in vitro (reactive oxygen species): modest protective effects

COC1=C(OC)C(=O)C(CCCCCCCCCCO)=C(C)C1=O [idebenone]
diameter of the central scotomas after treatment (LHON patients [3]; one 11778/ND4 LHON patient, from about 20 degrees): less than 5 degrees | recovery of visual acuity, color vision, and visual fields (LHON patients [3]; seven LHON patients, about 450 mg/d): showed recovery of visual acuity, color vision, and visual fields | final visual acuity vs placebo group (LHON patients [4]): better final visual acuity than the placebo group | delivery to mitochondria ([2]; compared with coenzyme Q10): higher delivery to mitochondria | efficiency in crossing the blood-brain barrier ([2]; compared with coenzyme Q10): higher efficiency in crossing the blood-brain barrier

D-Arg-2′,6′-dimethyltyrosine-Lys-Phe-NH2 [D-Arg-2′,6′-Dmt-Lys-Phe-NH2]
onset and severity of the symptoms of DOA [5]: prevent the onset of, delay the onset of, and/or reduce the severity of the symptoms of DOA | mu-opioid receptor agonist activity (mu-opioid receptor): does not have mu-opioid receptor agonist activity

F[dR]FK-NH2
mu-opioid receptor agonist activity (mu-opioid receptor): does not have mu-opioid receptor agonist activity

Tyr-D-Arg-Phe-Lys-NH2
mu-opioid receptor agonist activity (mu-opioid receptor): has mu-opioid receptor agonist activity
